Where two headings read alike, the source gives them in different places.

One experiment concerns pulmonary fibrosis. Conditions: patients with pulmonary fibrosis, open-label trials; cited from earlier work.
Experiment [1] relates to bleomycin-induced pulmonary fibrosis and pulmonary hypertension. Particulars: in vivo; cited from earlier work.
Experiment [2] concerns bleomycin-induced lung fibrotic remodeling. Particulars: mice, preventive and therapeutic protocols; cited from earlier work.
Experiment [3] has the same test system. Conditions: rat, preventive and therapeutic protocols; cited from earlier work.
For a further experiment, the target named is T1, PDE4B1 (Homo sapiens, UniProt Q07343).
T1 construct: made in house; host or cells: SF21 insect cells (baculovirus; virus prepared in SF9 cells)
In words: Inhibition of PDE4B1 activity (SPA, [3H]cAMP). In kind it is biochemical. Particulars: recombinant PDE4B1, 0.5 μM cAMP; binned: below 8 / between 8 and 9; read-out: PDE4B1 inhibitory values measured as −logIC50 (converted). As for the experimental part: The PDE4B1 (GB no. L20966) was a gift of Prof. M. Conti (Stanford University, USA). It was amplified from the original plasmid (pCMV5) via PCR with primers Rb18 (5′-[…]-3′) and Rb10 (5′-[…]-3′) and cloned into the pCR-Bac vector (Invitrogen, Groningen, NL).
The recombinant baculovirus was prepared by means of homologous recombination in SF9 insect cells. The expression plasmids were cotransfected with Baculo-Gold DNA (Pharmingen, Hamburg) using a standard protocol (Pharmingen, Hamburg). Wt virus-free recombinant virus supernatants were selected using plaque assay methods. After that, high-titre virus supernatants were prepared by amplifying 3 times. PDE4B1 was expressed in SF21 cells by infecting 2×10^6 cells/ml with an MOI (multiplicity of infection) between 1 and 10 in the serum-free SF900 medium (GIBCO Life Technologies, Karlsruhe, Germany). The cells were cultured at 28° C. for 48-72 hours, after which they were pelleted for 5-10 min at 1000×g and 4° C.
The SF21 insect cells were resuspended, at a concentration of approx. 10^7 cells/ml, in ice-cold (4° C.) homogenization buffer (20 mM Tris, pH 8.2, containing the following additions: 140 mM NaCl, 3.8 mM KCl, 1 mM EGTA, 1 mM MgCl2, 10 mM β-mercaptoethanol, 2 mM benzamidine, 0.4 mM Pefablock, 10 μM leupeptin, 10 μM pepstatin A, 5 μM trypsin inhibitor) and disrupted by ultrasonication. The homogenate was then centrifuged for 10 min at 1000×g and the supernatant was stored at −80° C. until subsequent use (see below). The protein content was determined by the Bradford method (BioRad, Munich) using BSA (Bovine serum albumin) as the standard.
PDE4B1 activities were measured in a 96-well platform using SPA (scintillation proximity assay) yttrium silicate beads (RPNQ1050 from GE Healthcare). In a first step the PDE activity operated hydrolysis of either [^3H] cAMP (substrate) into [^3H] 5′AMP. In a second step substrate and product were distinguished following addition of SPA yttrium silicate beads. Indeed, in the presence of zinc sulphate the linear [^3H] […] Close proximity of bound [^3H] […] The test volume was 100 μl and finally contained 20 mM Tris buffer (pH 7.4), 0.1 mg/ml of BSA, 5 mM Mg^2+, 0.5 μM cAMP (including about 50,000 cpm of [3H]cAMP) as substrate, 1 μl of the respective substance dilution in DMSO and sufficient recombinant PDE (1000×g supernatant, see above) to ensure that 10-20% of the cAMP was converted under the said experimental conditions. […] After a preincubation of 5 min at 37° C., the reaction was commenced by adding the substrate (cAMP) and the assays were incubated for a further 15 min. Reactions were terminated by adding SPA beads (50 μl). In agreement with the manufacturer's instructions, the SPA beads had previously been resuspended in water, but were then diluted 1:3 (v/v) in water. This diluted solution further contained 3 mM IBMX (isobutylmethylxanthine) to ensure a complete block of PDE activity. Once the beads were sedimented (>30 min), the MTP's (microtiter plate) were analyzed in commercially available luminescence detection devices. The corresponding IC50 values of the compounds for inhibition of PDE4B1 activity were determined from the concentration-effect curves by means of non-linear regression.
For the following compounds PDE4B1 inhibitory values [measured as −logIC50 (mol/l)] below 8 and between 8 and 9 have been determined. The numbers of the compounds correspond to the numbers of the examples.

The next experiment deals with T2, human PDE5 (Homo sapiens, UniProt O76074).
T2 construct: from tissue; host or cells: human platelets from fresh donor blood (platelet lysate)
Nature of the experiment: Inhibition of PDE5 activity (SPA, [3H]cGMP, platelet lysate). In kind it is biochemical. Conditions: 0.5 μM cGMP, binned: below 8 / between 8 and 9, read-out: PDE5 inhibitory values measured as −logIC50 (converted). As for the experimental part: As a source for human PDE5, platelets were used. For that purpose, 150 ml fresh blood from human donors anticoagulated with citrate [final concentration 0.3% (w/v)] was centrifuged at 200 g for 10 min to obtain the so-called platelet-rich-plasma (PRP) as a supernatant. 1/10 volume of ACD solution (85 mM Na3-citrate, 111 mM D-glucose, 71 mM citric acid, pH 4.4) was added to 9/10 volume of PRP. After centrifugation (1,400 g, 10 min) the cell pellet was resuspended in 3 ml homogenization buffer (NaCl 140 mM, KCl 3.8 mM, EGTA (ethylene glycol tetraacetic acid) 1 mM, MgCl2 1 mM, Tris-HCl 20 mM, beta-mercaptoethanol 1 mM, pH 8.2) plus protease-inhibitor mix resulting in final concentrations of 0.5 mM Pefablock (Roche), 10 μM Leupeptin, 5 μM Trypsine inhibitor, 2 mM Benzamidin and 10 μM Pepstatin A. The suspension was sonicated and thereafter centrifuged for 15 min at 10,000 g. The resulting supernatant (platelet lysate) was used for enzymatic assays.
PDE5 activities were measured in a 96-well platform using SPA (scintillation proximity assay) yttrium silicate beads (RPNQ1050 from GE Healthcare). In a first step the PDE activity operated hydrolysis of either [^3H] cGMP (substrate) into [^3H] 5′GMP. In a second step substrate and product were distinguished following addition of SPA yttrium silicate beads. Indeed, in the presence of zinc sulphate the linear [^3H] […] Close proximity of bound [^3H] […] The test volume was 100 μl and contained 20 mM Tris buffer (pH 7.4), 0.1 mg of BSA (bovine serum albumin)/ml, 5 mM Mg^2+, 1 μM motapizone (PDE3 Inhibitor), 10 nM PDE2 inhibitor 2-(3,4-dimethoxybenzyl)-7-[(1R,2R)-2-hydroxy-1-(2-phenylethyl)propyl]-5-methylimidazo[5,1-f][1,2,4]triazin-4(3H)-one, 0.5 μM cGMP (cyclic guanosine monophosphate) (including about 50,000 cpm of [3H]cGMP as a tracer) (substrate), 1 μl of the respective compound dilution in dimethylsulfoxide (DMSO) and sufficient PDE5-containing platelet lysat (10,000×g supernatant, see above) to ensure that 10-20% of the cGMP was converted under the said experimental conditions. […] After a preincubation of 5 min at 37° C., the reaction was commenced by adding the substrate (cGMP) and the assay was incubated for a further 15 min. The reaction was terminated by adding SPA beads (50 μl). In agreement with the manufacturer's instructions, the SPA beads had previously been resuspended in water, but were then diluted 1:3 (v/v) in water. This diluted solution also contained 3 mM 8-methoxymethyl-3-isobutyl-1-methylxanthine (IBMX) to ensure a complete block of PDE activity. Once the beads were sedimented (>30 min), the MTP's were analyzed in commercially available luminescence detection devices. The corresponding IC50 values of the compounds for inhibition of PDE activity were determined from the concentration-effect curves by means of non-linear regression.
For the following compounds PDE5 inhibitory values [measured as −logIC50 (mol/l)] below 8 and between 8 and 9 have been determined. The numbers of the compounds correspond to the numbers of the examples.

T1 sequence (Q07343 whole entry): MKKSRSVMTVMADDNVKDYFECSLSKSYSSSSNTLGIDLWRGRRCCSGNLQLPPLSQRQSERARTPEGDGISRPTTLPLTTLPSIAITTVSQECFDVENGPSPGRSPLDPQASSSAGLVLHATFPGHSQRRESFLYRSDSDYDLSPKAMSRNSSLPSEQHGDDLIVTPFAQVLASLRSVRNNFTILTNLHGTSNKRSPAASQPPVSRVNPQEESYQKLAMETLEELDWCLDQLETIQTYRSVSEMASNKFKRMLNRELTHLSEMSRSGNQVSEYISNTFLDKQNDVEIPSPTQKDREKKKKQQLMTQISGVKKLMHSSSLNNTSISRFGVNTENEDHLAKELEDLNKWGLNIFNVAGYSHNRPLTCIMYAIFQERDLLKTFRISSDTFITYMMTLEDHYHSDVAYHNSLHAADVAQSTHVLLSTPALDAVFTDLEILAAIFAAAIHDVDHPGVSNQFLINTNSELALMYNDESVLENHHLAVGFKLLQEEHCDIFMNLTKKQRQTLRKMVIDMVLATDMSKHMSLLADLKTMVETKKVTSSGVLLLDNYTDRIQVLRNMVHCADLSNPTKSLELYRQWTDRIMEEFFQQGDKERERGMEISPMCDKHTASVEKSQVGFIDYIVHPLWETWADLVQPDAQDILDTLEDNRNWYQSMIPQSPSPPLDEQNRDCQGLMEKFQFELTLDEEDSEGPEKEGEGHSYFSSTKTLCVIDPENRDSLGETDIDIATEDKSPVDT

For `CCCc1nn(C)c2c(=O)[nH]c(-c3cc(S(=O)(=O)N4CCN(C)CC4)ccc3OCC)nc12` [sildenafil], in the experiment with pulmonary fibrosis, the exercise tolerance result is listed as “increases exercise tolerance”; the “lung hemodynamic parameters (vascular resistance and ventilation/perfusion matching)” value is given as “improves lung hemodynamic parameters”. The “effect on bleomycin-induced pulmonary fibrosis and pulmonary hypertension” value in experiment [1] was “attenuates bleomycin-induced pulmonary fibrosis and pulmonary hypertension”.

For `O=C(Nc1c(Cl)cncc1Cl)c1ccc(OC(F)F)c(OCC2CC2)c1` [roflumilast], the “effect on bleomycin-induced lung fibrotic remodeling” value in experiment [2] and in experiment [3] was “alleviate bleomycin-induced lung fibrotic remodeling” each time.

Turning to `CCOc1cc2c(cc1OC)C(c1ccc(C(=O)N3CCC(n4c(=O)c5sc(-c6ccccc6OC)cc5n(Cc5ccc(OC)c(F)c5)c4=O)CC3)cc1)=N[C@@H]1CCSC[C@H]21` [Example 19, 3-[1-({4-[(4aR,10bR)-9-ethoxy-8-methoxy-3,4,4a,10b-tetrahydro-1H-thiopyrano[4,3-c]isoquinolin-6-yl]phenyl}carbonyl)piperidin-4-yl]-1-(3-fluoro-4-methoxybenzyl)-6-(2-methoxyphenyl)thieno[3,2-d]pyrimidine-2,4(1H,3H)-dione], the IC50 at PDE4B1 and on human PDE5 was 0.001 to 0.01 µM throughout.

With `CCOc1cc2c(cc1OC)C(c1ccc(C(=O)N3CCC(n4c(=O)c5sc(-c6ccc(F)cc6C)cc5n(Cc5ccc(OC)c(F)c5)c4=O)CC3)cc1)=N[C@@H]1CCSC[C@H]21` [Example 18, 3-[1-({4-[(4aR,10bR)-9-ethoxy-8-methoxy-3,4,4a,10b-tetrahydro-1H-thiopyrano[4,3-c]isoquinolin-6-yl]phenyl}carbonyl)piperidin-4-yl]-1-(3-fluoro-4-methoxybenzyl)-6-(4-fluoro-2-methylphenyl)thieno[3,2-d]pyrimidine-2,4(1H,3H)-dione], the IC50 is greater than 0.01 µM at PDE4B1 and 0.001 to 0.01 µM on human PDE5.

`CCOc1cc2c(cc1OC)C(c1ccc(C(=O)N3CCC(n4c(=O)c5sc(-c6ccc(F)cc6OC)cc5n(Cc5ccc(OC)c(F)c5F)c4=O)CC3)cc1)=N[C@@H]1CCSC[C@H]21` [Example 15, 1-(2,3-difluoro-4-methoxybenzyl)-3-[1-({4-[(4aR,10bR)-9-ethoxy-8-methoxy-3,4,4a,10b-tetrahydro-1H-thiopyrano[4,3-c]isoquinolin-6-yl]phenyl}carbonyl)piperidin-4-yl]-6-(4-fluoro-2-methoxyphenyl)thieno[3,2-d]pyrimidine-2,4(1H,3H)-dione]: the IC50 was 0.001 to 0.01 µM at PDE4B1 and greater than 0.01 µM on human PDE5.

The record behind these values is patent US20140113877A1, “NOVEL 3,4,4A,10B-TETRAHYDRO-1H-THIOPYRANO[4,3-C] ISOQUINOLINE COMPOUNDS” (Takeda GmbH, priority 2011, published 2014).
